Test results taken from ChEMBL document CHEMBL3046940, “Microwave-assisted synthesis of novel 4H-chromene derivatives bearing 2-aryloxyquinoline and their antimicrobial activity assessment” (2013).
Values after ≈ are worked out from the molar mass of the structure shown.

Assays:
Type in all cases: functional
Vibrio cholerae = assay: Antimicrobial activity against Vibrio cholerae MTCC 3906 assessed as growth inhibition after 24-48 hr by NCCLS broth microdilution method
Salmonella typhi = assay: Antimicrobial activity against Salmonella enterica subsp. enterica serovar Typhi MTCC 98 assessed as growth inhibition after 24-48 hr by NCCLS broth microdilution method
Escherichia coli = assay: Antimicrobial activity against Escherichia coli MTCC 443 assessed as growth inhibition after 24-48 hr by NCCLS broth microdilution method
Streptococcus pneumoniae = assay: Antimicrobial activity against Streptococcus pneumoniae MTCC 1936 assessed as growth inhibition after 24-48 hr by NCCLS broth microdilution method
Clostridium tetani = assay: Antimicrobial activity against Clostridium tetani MTCC 449 assessed as growth inhibition after 24-48 hr by NCCLS broth microdilution method
Bacillus subtilis = assay: Antimicrobial activity against Bacillus subtilis MTCC 441 assessed as growth inhibition after 24-48 hr by NCCLS broth microdilution method
Candida albicans = assay: Antimicrobial activity against Candida albicans MTCC 227 assessed as growth inhibition after 24-48 hr by NCCLS broth microdilution method
Aspergillus fumigatus = assay: Antimicrobial activity against Aspergillus fumigatus MTCC 3008 assessed as growth inhibition after 24-48 hr by NCCLS broth microdilution method

Molecule	MIC (Vibrio cholerae)	MIC (Salmonella typhi)	MIC (Escherichia coli)	MIC (Streptococcus pneumoniae)	MIC (Clostridium tetani)	MIC (Bacillus subtilis)	MIC (Candida albicans)	MIC (Aspergillus fumigatus)
COc1ccc2nc(Oc3ccccc3)c(C3C(C#N)=C(N)OC4=C3C(=O)CC(C)(C)C4)cc2c1 (stereo not given)	200 µg/mL (≈ 428 µM)	500 µg/mL (≈ 1070 µM)	200 µg/mL (≈ 428 µM)	500 µg/mL (≈ 1070 µM)	100 µg/mL (≈ 214 µM)	500 µg/mL (≈ 1070 µM)	500 µg/mL (≈ 1070 µM)	1000 µg/mL (≈ 2140 µM)
COC1=CC(=O)C[C@@H](C)[C@]12Oc1c(Cl)c(OC)cc(OC)c1C2=O [GRISEOFULVIN]							500 µg/mL (≈ 1420 µM)	100 µg/mL (≈ 283 µM)
O=C(N[C@H](CO)[C@H](O)c1ccc([N+](=O)[O-])cc1)C(Cl)Cl [CHLORAMPHENICOL]	50 µg/mL (≈ 155 µM)	50 µg/mL (≈ 155 µM)	50 µg/mL (≈ 155 µM)	50 µg/mL (≈ 155 µM)	50 µg/mL (≈ 155 µM)	50 µg/mL (≈ 155 µM)		
CC1(C)S[C@@H]2[C@H](NC(=O)[C@H](N)c3ccccc3)C(=O)N2[C@H]1C(=O)O [AMPICILLIN]	100 µg/mL (≈ 286 µM)	100 µg/mL (≈ 286 µM)	100 µg/mL (≈ 286 µM)	100 µg/mL (≈ 286 µM)	250 µg/mL (≈ 715 µM)	250 µg/mL (≈ 715 µM)		
COc1ccc2nc(Oc3ccc(F)cc3)c(C3C(C#N)=C(N)OC4=C3C(=O)CC(C)(C)C4)cc2c1 (stereo not given)	250 µg/mL (≈ 515 µM)	100 µg/mL (≈ 206 µM)	62.5 µg/mL (≈ 129 µM)	150 µg/mL (≈ 309 µM)	200 µg/mL (≈ 412 µM)	200 µg/mL (≈ 412 µM)	500 µg/mL (≈ 1030 µM)	500 µg/mL (≈ 1030 µM)
NYSTATIN							100 µg/mL	100 µg/mL
CCn1cc(C(=O)O)c(=O)c2cc(F)c(N3CCNCC3)cc21 [NORFLOXACIN]	10 µg/mL (≈ 31.3 µM)	10 µg/mL (≈ 31.3 µM)	10 µg/mL (≈ 31.3 µM)	10 µg/mL (≈ 31.3 µM)	50 µg/mL (≈ 157 µM)	100 µg/mL (≈ 313 µM)		
COc1ccc(Oc2nc3ccc(OC)cc3cc2C2C(C#N)=C(N)OC3=C2C(=O)CC(C)(C)C3)cc1 (stereo not given)	250 µg/mL (≈ 502 µM)	250 µg/mL (≈ 502 µM)	250 µg/mL (≈ 502 µM)	1000 µg/mL (≈ 2010 µM)	250 µg/mL (≈ 502 µM)	1000 µg/mL (≈ 2010 µM)	250 µg/mL (≈ 502 µM)	500 µg/mL (≈ 1000 µM)
N#CC1=C(N)OC2=C(C(=O)CCC2)C1c1cc2ccccc2nc1Oc1ccc(F)cc1 (stereo not given)	500 µg/mL (≈ 1170 µM)	200 µg/mL (≈ 468 µM)	100 µg/mL (≈ 234 µM)	250 µg/mL (≈ 585 µM)	500 µg/mL (≈ 1170 µM)	250 µg/mL (≈ 585 µM)	250 µg/mL (≈ 585 µM)	> 1000 µg/mL
COc1ccc(Oc2nc3ccccc3cc2C2C(C#N)=C(N)OC3=C2C(=O)CCC3)cc1 (stereo not given)	100 µg/mL (≈ 228 µM)	250 µg/mL (≈ 569 µM)	150 µg/mL (≈ 341 µM)	100 µg/mL (≈ 228 µM)	1000 µg/mL (≈ 2280 µM)	200 µg/mL (≈ 455 µM)	1000 µg/mL (≈ 2280 µM)	> 1000 µg/mL
Cc1ccc(Oc2nc3ccccc3cc2C2C(C#N)=C(N)OC3=C2C(=O)CCC3)cc1 (stereo not given)	200 µg/mL (≈ 472 µM)	500 µg/mL (≈ 1180 µM)	250 µg/mL (≈ 590 µM)	500 µg/mL (≈ 1180 µM)	500 µg/mL (≈ 1180 µM)	1000 µg/mL (≈ 2360 µM)	500 µg/mL (≈ 1180 µM)	500 µg/mL (≈ 1180 µM)
O=C(O)c1cn(C2CC2)c2cc(N3CCNCC3)c(F)cc2c1=O [CIPROFLOXACIN]	25 µg/mL (≈ 75.4 µM)	25 µg/mL (≈ 75.4 µM)	25 µg/mL (≈ 75.4 µM)	50 µg/mL (≈ 151 µM)				
N#CC1=C(N)OC2=C(C(=O)CCC2)C1c1cc2ccccc2nc1Oc1ccccc1 (stereo not given)	250 µg/mL (≈ 611 µM)	250 µg/mL (≈ 611 µM)	100 µg/mL (≈ 244 µM)	250 µg/mL (≈ 611 µM)	250 µg/mL (≈ 611 µM)	250 µg/mL (≈ 611 µM)	500 µg/mL (≈ 1220 µM)	1000 µg/mL (≈ 2440 µM)
COc1ccc2nc(Oc3ccc(C)cc3)c(C3C(C#N)=C(N)OC4=C3C(=O)CC(C)(C)C4)cc2c1 (stereo not given)	200 µg/mL (≈ 415 µM)	100 µg/mL (≈ 208 µM)	100 µg/mL (≈ 208 µM)	500 µg/mL (≈ 1040 µM)	100 µg/mL (≈ 208 µM)	500 µg/mL (≈ 1040 µM)	1000 µg/mL (≈ 2080 µM)	500 µg/mL (≈ 1040 µM)
